These are literature values, as cited in PubChem BioAssay AID1259410 (Chemical Carcinogenesis Research Information System (CCRIS), 2018).

This series relates to rodent tumor promotion studies, tumor incidence. As to the kind of experiment: CCRIS tumor promotion studies.

As to `Cc1cc(C(C)(C)C)c(O)c(C(C)(C)C)c1`, the outcome is “liver: neoplastic nodule, hepatocellular carcinoma” (Carcinogen: 2-(ACETYLAMINO)FLUORINE, Doses [Carcinogen]: 200 PPM IN DIET FOR 8 WK, Doses [Promoter]: 300, 1000, 3000, 6000 PPM IN DIET FOR 22 WK AFTER INITIATION FOR 8 WK, Doses [Promoter]: 300, 1000, 3000, 6000 PPM IN DIET FOR 22 WK AFTER INITIATION FOR 8 WK, Route [Carcinogen]: ORAL, Route [Promoter]: ORAL, Species: RAT, Strain/Sex: F344/MALE); “liver” (Carcinogen: 2-(ACETYLAMINO)FLUORINE, Doses [Carcinogen]: DIET, Doses [Promoter]: IN DIET, Route [Carcinogen]: ORAL, Route [Promoter]: ORAL, Species: RAT, Strain/Sex: MALE); “bladder: carcinoma, papilloma” (Carcinogen: 3,2'-DIMETHYL-4-AMINOBIPHENYL, 13394-86-0, Doses [Carcinogen]: 50 MG/KG IN CORN OIL 1/WK FOR 10 WK, Doses [Promoter]: 0, 1 ADMINISTERED TO 4 WK OLD RATS IN DIET FOR 11 WK BEGINNING 1 WK PRIOR TO CARCINOGEN (STUDY DURATION: 55 WK), Route [Carcinogen]: SUBCUTANEOUS, Route [Promoter]: ORAL, Species: RAT, Strain/Sex: F344/MALE); “lung: tumor” (Carcinogen: 3-METHYLCHOLANTHRENE, 56-49-5, Doses [Carcinogen]: 10, 15, 25 UG/G ONCE, Doses [Carcinogen]: 10, 15, 25 UG/G ONCE, Doses [Promoter]: 0, 200 MG/KG 1/WK FOR 6 WK (STUDY DURATION: 20 WK), Route [Carcinogen]: INTRAPERITONEAL, Route [Promoter]: INTRAPERITONEAL, Species: MOUSE, Strain/Sex: BALB/CBYJ/FEMALE); “lung: tumor” (Carcinogen: 3-METHYLCHOLANTHRENE, 56-49-5, Doses [Carcinogen]: 10 UG/G ONCE, Doses [Promoter]: 0, 200 MG/KG 1/WK FOR 6 WK (STUDY DURATION: 20 WK), Route [Carcinogen]: INTRAPERITONEAL, Route [Promoter]: INTRAPERITONEAL, Species: MOUSE, Strain/Sex: BALB/COLA/FEMALE); “urinary bladder: papilloma, carcinoma; thyroid: adenoma” (Carcinogen: METHYLNITROSOUREA, 684-93-5, Doses [Carcinogen]: 20 MG/KG 2/WK FOR 4 WK, Doses [Promoter]: 0, 1% IN DIET BEGINNING POST CARCINOGEN TREATMENT AND CONTINUING FOR 32 WK (STUDY DURATION: 36 WK), Route [Carcinogen]: INTRAPERITONEAL, Route [Promoter]: ORAL, Species: RAT, Strain/Sex: F344/MALE). For the same molecule, the outcome by setting is: (Carcinogen: N,N-DIBUTYLNITROSAMINE, 924-16-3, Doses [Carcinogen]: 0.05% IN DRINKING WATER FOR 16 WK, Doses [Promoter]: 0, 0.7% IN DIET FOR 16 WK CONCOMITANT WITH CARCINOGEN TREATMENT (STUDY DURATION: 32 WK), Route [Carcinogen]: ORAL, Route [Promoter]: ORAL, Species: RAT, Strain/Sex: F344/MALE) “liver: hepatocellular carcinoma”; (Carcinogen: N-BUTYL-N-(4-HYDROXYBUTYL)NITROSAMINE, 3817-11-6, Doses [Carcinogen]: 0.05% IN DRINKING WATER FOR 4 WK, Doses [Promoter]: 0, 1% IN DIET FOR 32 WK (STUDY DURATION: 36 WK), Route [Carcinogen]: ORAL, Route [Promoter]: ORAL, Species: RAT, Strain/Sex: F344/MALE) “urinary bladder: papilloma, carcinoma”; (Carcinogen: N-BUTYL-N-(4-HYDROXYBUTYL)NITROSAMINE, Doses [Carcinogen]: 0.05% IN DRINKING WATER FOR 4 WK, Doses [Promoter]: 1% IN DIET FOR 32 WK AFTER INITIATION, Route [Carcinogen]: ORAL, Route [Promoter]: ORAL, Species: RAT, Strain/Sex: F344/MALE) “urinary bladder: carcinoma”; (Carcinogen: N-METHYL-N-NITROSOUREA, 684-93-5, Doses [Carcinogen]: 20 MG/KG 2/WK FOR 4 WK, Doses [Promoter]: 0, 1% IN DIET FOR 32 WK (STUDY DURATION: 36 WK), Route [Carcinogen]: INTRAPERITONEAL, Route [Promoter]: ORAL, Species: RAT, Strain/Sex: F344/MALE) “thyroid gland: adenoma; urinary bladder: papilloma, carcinoma”; (Carcinogen: URETHANE, 51-79-6, Doses [Carcinogen]: 1 MG/G BW ONCE, Doses [Promoter]: 0, 200 MG/G BW 1/WK FOR 6 WK BEGINNING POST CARCINOGEN TREATMENT (STUDY DURATION: 20 WK), Route [Carcinogen]: INJECTION, Route [Promoter]: INJECTION, Species: MOUSE, Strain/Sex: BALB/MALE,FEMALE) “lung: tumor”; (Carcinogen: URETHANE, 51-79-6, Doses [Carcinogen]: 1 MG/G BW ONCE, Doses [Promoter]: 0, 200 MG/G BW 1/WK FOR 6 WK BEGINNING POST CARCINOGEN TREATMENT (STUDY DURATION: 20 WK), Route [Carcinogen]: INJECTION, Route [Promoter]: INJECTION, Species: MOUSE, Strain/Sex: GRS/MALE,FEMALE) “lung: tumor”. In addition, the outcome is, setting by setting: (Carcinogen: URETHANE, 51-79-6, Doses [Carcinogen]: 1 MG/KG ONCE, Doses [Promoter]: 0, 200 MG/KG 1/WK FOR 6 WK (STUDY DURATION: 20 WK), Route [Carcinogen]: INTRAPERITONEAL, Route [Promoter]: INTRAPERITONEAL, Species: MOUSE, Strain/Sex: BALB/CBYJ/FEMALE) “lung: tumor”; (Carcinogen: URETHANE, Doses [Carcinogen]: 1000 MG/KG ONCE, Doses [Promoter]: 0.10, 0.25, 0.50% IN DIET FOR 8 WK BEGINNING 24 HR AFTER INITIATION, Doses [Promoter]: 0.10, 0.25, 0.50% IN DIET FOR 8 WK BEGINNING 24 HR AFTER INITIATION, Route [Carcinogen]: INTRAPERITONEAL, Route [Promoter]: ORAL, Species: MOUSE, Strain/Sex: STRAIN-A/MALE) “lung: tumor (nos)”; (Carcinogen: URETHANE, Doses [Carcinogen]: IP, Route [Carcinogen]: INTRAPERITONEAL, Route [Promoter]: INTRAPERITONEAL, Species: MOUSE, Strain/Sex: MALE) “lung”.

With `[Cl][Zn][Cl]`, under “Carcinogen: URETHANE, 51-79-6, Doses [Carcinogen]: 1.5 MG/G ONCE, Doses [Promoter]: 0, 50, 200, 500 UG/ML IN DEIONIZED DRINKING WATER BEGINNING 3 WK PRIOR TO CARCINOGEN DOSE AND CONTINUING FOR 12 WK POST, Doses [Promoter]: 0, 50, 200, 500 UG/ML IN DEIONIZED DRINKING WATER BEGINNING 3 WK PRIOR TO CARCINOGEN DOSE AND CONTINUING FOR 12 WK POST, Route [Carcinogen]: INTRAPERITONEAL, Route [Promoter]: ORAL, Species: MOUSE, Strain/Sex: SWISS/FEMALE”, the outcome is “lung: adenoma”.

`CN(C)CCCN1c2ccccc2Sc2ccc(Cl)cc21`: the outcome (Carcinogen: UV IRRADIATION, Doses [Carcinogen]: 0.53 J/CM2 INCREASED BY 20% EVERY 2 WK TO 1.60 J/CM2 AND MAINTAINED AT 1.60 J/CM2 UNTIL DEATH, ADMINISTERED 5 D/WK FOR 1, Doses [Promoter]: 0, 15 UG/G BEGINNING 2 WK POST FIRST CARCINOGEN DOSE ADMINISTERED 2 HR PRIOR TO EACH CARCINOGEN DOSE (STUDY DURATION: 30, Route [Carcinogen]: DERMAL, Route [Promoter]: INTRAPERITONEAL, Species: MOUSE, Strain/Sex: SKH/HRL/FEMALE) was “skin: tumor”.

In the case of `CCCCCCCCCC`, the outcome is reported as “integumentary system (skin)” (Carcinogen: 7,12-DIMETHYLBENZ(A)ANTHRACENE, Doses [Carcinogen]: TOP, Route [Carcinogen]: DERMAL, Route [Promoter]: DERMAL, Species: MOUSE, Strain/Sex: FEMALE) and “integumentary system (skin)” (Carcinogen: BENZO(A)PYRENE, Doses [Carcinogen]: TOP, Route [Carcinogen]: DERMAL, Route [Promoter]: DERMAL, Species: MOUSE, Strain/Sex: FEMALE).

Take `COc1c2occc2cc2ccc(=O)oc12`: the outcome is “lung: adenoma (2.15 vs 1.54, not significant)” (Carcinogen: 4-(Methylnitrosamino)-1-(3-pyridyl)-1-butanone (NNK), 64091-91-4, Doses [Carcinogen]: Once, 2 mg/0.1 ml saline/mouse on first day, study duration 32 wks, Doses [Carcinogen]: Once, 2 mg/0.1 ml saline/mouse on first day, study duration 32 wks, Doses [Promoter]: 100 ppm in diet from wks 2-16, study duration 32 wks, Route [Carcinogen]: Intraperitoneal, Route [Promoter]: Oral, Species: Mouse, Strain/Sex: A/J/Female); “lung: adenoma and adenocarcinoma (7.31 vs 6.78, not significant)” (Carcinogen: 4-(Methylnitrosamino)-1-(3-pyridyl)-1-butanone (NNK), 64091-91-4, Doses [Carcinogen]: Once, 2 mg/0.1 ml saline/mouse on first day, study duration 32 wks, Doses [Carcinogen]: Once, 2 mg/0.1 ml saline/mouse on first day, study duration 32 wks, Doses [Promoter]: 100 ppm in diet from wks16-32, study duration 32 wks, Route [Carcinogen]: Intraperitoneal, Route [Promoter]: Oral, Species: Mouse, Strain/Sex: A/J/Female).

As to `NN=C(N)N`, the outcome was “colon: tumor” (Carcinogen: AZOXYMETHANE, Doses [Carcinogen]: 2.5 MG/KG IN DISTILLED WATER 1/WK FOR 10 WK, Doses [Promoter]: 100 MG/KG IN 0.9%, NACL, 3/WK FOR 24 WK ADMINISTERED SIMULTANEOUSLY AND POST CARCINOGEN DOSES (STUDY DURATION: 52 WK), Route [Carcinogen]: SUBCUTANEOUS, Route [Promoter]: INTRAGASTRIC, Species: RAT, Strain/Sex: F344/MALE) and “stomach: adenocarcinoma” (Carcinogen: N-METHYL-N'-NITRO-N-NITROSOGUANIDINE, 70-25-7, Doses [Carcinogen]: 25 UG/ML IN DRINKING WATER FOR 25 WK, Doses [Promoter]: 0, 25 MG/KG BW 1/2 D FOR 25 WK BEGINNING POST CARCINOGEN TREATMENT (STUDY DURATION: 52 WK), Route [Carcinogen]: ORAL, Route [Promoter]: SUBCUTANEOUS, Species: RAT, Strain/Sex: WISTAR/MALE).

As to `Nc1ncn[nH]1`, where the note is “Carcinogen: N-BIS(2-HYDROXYPROPYL)NITROSAMINE, Doses [Carcinogen]: 70 MG/100 G BW 1/WK FOR 4 WK, Doses [Promoter]: 2000 PPM IN DIET FOR 12 WK BEGINNING 1 WK AFTER INITIATION, Route [Carcinogen]: SUBCUTANEOUS, Route [Promoter]: ORAL, Species: RAT, Strain/Sex: WISTAR/MALE”, the outcome is recorded as “thyroid gland: adenoma, carcinoma”.
